Converted amounts (≈) assume the structure as drawn.
Experiments:
[1] = biological target: T1, lipase (EC 3.1.1.3, from Saccharomyces cerevisiae); test: p-nitrophenyl butyrate hydrolysis, absorbance at […] nm; type: biochemical; details: 30 min pre-incubation, 37 °C; substrate pNPB; positive control
T1 construct: gene TGL2; discussion speaks of pancreatic lipase, but the assay used the yeast-labelled enzyme

[2] = system: T1, lipase (EC 3.1.1.3, from Saccharomyces cerevisiae); test: pNPB hydrolysis at […] nm, Lineweaver-Burk plot; type: biochemical; details: no inhibitor; unit printed as µg, not a concentration; pNPB 0.0–10 mg/mL

IC50 [1] [mg/L]	Km [2] [µg]	Structure (SMILES)
213 ± 5.0 (≈ 430 µM)		CCCCCCCCCCC[C@@H](C[C@@H]1OC(=O)[C@H]1CCCCCC)OC(=O)[C@H](CC(C)C)NC=O [orlistat]
	5.08 ± 0.23	CCCC(=O)Oc1ccc([N+](=O)[O-])cc1 [p-nitrophenyl butyrate]

Source: article PMC11143312, “Antioxidant, anti-amylase, anti-lipase, and efficiency of Satureja fatty acid on the anti-inflammatory parameters in lipopolysaccharide-stimulated macrophage through Nrf2/NF-kB/NADH oxidase pathway” (Scientific Reports, 2024)
